Results on ten compounds are retold here after ChEMBL document CHEMBL3868635, “Bromomethylthioindole Inspired Carbazole Hybrids as Promising Class of Anti-MRSA Agents” (ACS Med Chem Lett, 2016).

Converted amounts (≈) assume the structure as drawn. Some results are limits rather than exact numbers.

The test system of assay [1] is Staphylococcus aureus. Nature of the assay: Antibacterial activity against methicillin-susceptible Staphylococcus aureus ATCC 29213 incubated for overnight measured after 20 to 24 hrs by broth microdilution method. In kind it is functional.
For assay [2], the system named is Staphylococcus aureus. Nature of the assay: Antibacterial activity against methicillin-resistant Staphylococcus aureus ATCC 43300 incubated for overnight measured after 20 to 24 hrs by broth microdilution method. It counts as functional.
Assay [3] deals with Staphylococcus aureus. Nature of the assay: Antibacterial activity against methicillin-susceptible Staphylococcus aureus M056 incubated for overnight measured after 20 to 24 hrs by broth microdilution method. In kind it is functional.
Assay [4] relates to Staphylococcus aureus. Nature of the assay: Antibacterial activity against methicillin-resistant Staphylococcus aureus M013 incubated for overnight measured after 20 to 24 hrs by broth microdilution method. In kind it is functional.
The subject of assay [5] is Staphylococcus aureus. Briefly: Antibacterial activity against methicillin-resistant Staphylococcus aureus N043 incubated for overnight measured after 20 to 24 hrs by broth microdilution method. It counts as functional.
The subject of assay [6] is Staphylococcus aureus. Nature of the assay: Antibacterial activity against methicillin-resistant Staphylococcus aureus C217 incubated for overnight measured after 20 to 24 hrs by broth microdilution method. In kind it is functional.
Assay [7] concerns Staphylococcus aureus. Briefly: Antibacterial activity against methicillin-resistant Staphylococcus aureus Y069 incubated for overnight measured after 20 to 24 hrs by broth microdilution method. It counts as functional.
Assay [8] deals with Staphylococcus aureus. Briefly: Antibacterial activity against methicillin-resistant Staphylococcus aureus L166 incubated for overnight measured after 20 to 24 hrs by broth microdilution method. In kind it is functional.
The test system of assay [9] is Staphylococcus aureus. Nature of the assay: Antibacterial activity against methicillin-resistant Staphylococcus aureus Z234 incubated for overnight measured after 20 to 24 hrs by broth microdilution method. In kind it is functional.
Assay [10] relates to Staphylococcus aureus. Nature of the assay: Antibacterial activity against methicillin-resistant Staphylococcus aureus 4N216 incubated for overnight measured after 20 to 24 hrs by broth microdilution method. In kind it is functional.
Assay [11] relates to Staphylococcus aureus. Briefly: Antibacterial activity against vancomycin-intermediate and daptomycin-nonsusceptible methicillin-resistant Staphylococcus aureus Z172 incubated for overnight measured after 20 to 24 hrs by broth microdilution method. It counts as functional.
Assay [12] deals with Enterococcus faecalis. Briefly: Antibacterial activity against vancomycin-resistant Enterococcus faecalis ATCC 51299 incubated for overnight measured after 20 to 24 hrs by broth microdilution method. It counts as functional.
The test system of another assay is Escherichia coli. Briefly: Antibacterial activity against Escherichia coli ATCC 25922 incubated for overnight measured after 20 to 24 hrs by broth microdilution method. It counts as functional.
The subject of the next assay is Pseudomonas aeruginosa. Briefly: Antibacterial activity against Pseudomonas aeruginosa ATCC 27853 incubated for overnight measured after 20 to 24 hrs by broth microdilution method. It counts as functional.
The subject of a further assay is Klebsiella pneumoniae. Nature of the assay: Antibacterial activity against Klebsiella pneumoneae ATCC 700603 incubated for overnight measured after 20 to 24 hrs by broth microdilution method. In kind it is functional.
For a further assay, the system named is Acinetobacter baumannii. Nature of the assay: Antibacterial activity against Acinetobacter baumannii ATCC 19606 incubated for overnight measured after 20 to 24 hrs by broth microdilution method. It counts as functional.
For assay [13], the system named is Enterococcus faecalis. Briefly: Potency index, ratio of […] MIC to compound MIC against vanomycin-resistant Enterococcus faecalis ATCC 51299.

For the compound `O[C@@H](CNCCc1c[nH]c2cc(F)ccc12)Cn1c2ccc(Cl)cc2c2cc(Cl)ccc21`, the MIC against Staphylococcus aureus [1] and against Staphylococcus aureus [2] was 0.5 to 1 µg/mL (≈ 1.06 to 2.13 µM) in each case.
As for `O[C@H](CNCCc1c[nH]c2ccc(Cl)cc12)Cn1c2ccc(Br)cc2c2cc(Br)ccc21`, the MIC with Staphylococcus aureus [1] and against Staphylococcus aureus [2] was 1 µg/mL (≈ 1.74 µM) in each case.
For the compound `OC(CNCc1c[nH]c2cc(F)ccc12)Cn1c2ccc(Br)cc2c2cc(Br)ccc21` (configuration not stated), the MIC with Staphylococcus aureus [1] and against Staphylococcus aureus [2] was 2 µg/mL (≈ 3.67 µM) in each case.
As for `OC(CNCCc1c[nH]cn1)Cn1c2ccc(Br)cc2c2cc(Br)ccc21` (configuration not stated), the MIC against Staphylococcus aureus [1] and against Staphylococcus aureus [2] was 4 µg/mL (≈ 8.13 µM) in each case.
Regarding `OC(CNCCc1c[nH]c2ccc(Cl)cc12)Cn1c2ccc(Br)cc2c2cc(Br)ccc21` (racemic), the MIC against Staphylococcus aureus [1], against Staphylococcus aureus [2], in the assay with Staphylococcus aureus [3], against Staphylococcus aureus [4], against Staphylococcus aureus [5] and against Staphylococcus aureus [6] was 1 µg/mL (≈ 1.74 µM) throughout. Also, the MIC with Staphylococcus aureus [7] was determined as 1 µg/mL (≈ 1.74 µM); with Staphylococcus aureus [8], 1 µg/mL (≈ 1.74 µM); against Staphylococcus aureus [9] it was 1 µg/mL (≈ 1.74 µM); in the assay on Staphylococcus aureus [10] it was 1 µg/mL (≈ 1.74 µM); with Staphylococcus aureus [11], 2 µg/mL (≈ 3.47 µM); in the assay on Enterococcus faecalis [12], 1 µg/mL (≈ 1.74 µM). Further, the MIC with Escherichia coli, with Pseudomonas aeruginosa, with Klebsiella pneumoniae and in the assay on Acinetobacter baumannii was over 64 µg/mL in each case. Further, the Ratio with Enterococcus faecalis [13] is 4 - 18.
For `OC(CNc1ccc(C(F)(F)F)cc1)Cn1c2ccc(Cl)cc2c2cc(Cl)ccc21` (configuration not stated), the MIC in the assay on Staphylococcus aureus [3], against Staphylococcus aureus [4], against Staphylococcus aureus [5], against Staphylococcus aureus [6], in the assay with Staphylococcus aureus [7] and against Staphylococcus aureus [8] was 1 µg/mL (≈ 2.21 µM) in each case. The MIC against Staphylococcus aureus [9] was 1 µg/mL (≈ 2.21 µM); in the assay with Staphylococcus aureus [10], 1 µg/mL (≈ 2.21 µM); against Staphylococcus aureus [11], 1 µg/mL (≈ 2.21 µM); with Enterococcus faecalis [12] it was 2 µg/mL (≈ 4.41 µM); against Escherichia coli, over 64 µg/mL; in the assay with Pseudomonas aeruginosa, over 64 µg/mL. Besides, the MIC in the assay with Klebsiella pneumoniae and in the assay on Acinetobacter baumannii was over 64 µg/mL in each case.
`OC(CNCCc1cccc(F)c1)Cn1ccc2cc(Br)ccc21` (configuration not stated): the MIC in the assay with Staphylococcus aureus [1] is 16 to 32 µg/mL (≈ 40.9 to 81.8 µM); against Staphylococcus aureus [2] it was 8 µg/mL (≈ 20.4 µM).
The like results for `Oc1ccc(CCNCC(O)Cn2c3ccc(Br)cc3c3cc(Br)ccc32)cc1O` (configuration not stated) were, in that order, 16 µg/mL (≈ 29.9 µM) and 16 µg/mL (≈ 29.9 µM).
On to `OC(CNCCc1c[nH]c2cc(F)ccc12)Cn1c2ccccc2c2ccccc21` (configuration not stated), for which the MIC in the assay on Staphylococcus aureus [1] and in the assay with Staphylococcus aureus [2] was 4 µg/mL (≈ 9.96 µM) each time.
In the case of `OC(Cn1cncn1)Cn1c2ccc(Br)cc2c2cc(Br)ccc21` (configuration not stated), the MIC against Staphylococcus aureus [1] and in the assay with Staphylococcus aureus [2] was 16 µg/mL (≈ 35.5 µM) each time.
